Laboratory results as given in US8138356B2, “Chemical inhibitors of inhibitors of differentiation” (Angiogeney, Inc., priority 2008, dated 2012).

Key:
DU145 cells = test: Cell survival/morphology by microscopy, DU145 prostate cancer cells; format: cell-based, human; conditions: concentration of 1 um (FIG. 6)
Experimental: Prostate cancer cell lines DU145 and PC3 (in 10% BCS) were obtained from American Type Culture Collection (Rockville, Md.). The cells were cultured in Ham's F12 (Gibco, Carlsbad, Calif.) medium containing 10% BCS (Hyclone, Logan, Utah) and appropriate antibiotics (pen/strep, fungizaone, and gentamycin (Invitrogen Inc., Carlsbad, Calif.). All cells were cultured at 37° C. in a fully humidified atmosphere containing 5% CO2.
At 50% confluence, the cells were treated with either 100 μM DMSO, 1000 mOsmol of urea+NaCL, 1 μM N-[3-(1,3-benzodioxol-5-yl)-3-(2-methoxyphenyl)propyl]-N-benzylpropanamide, 10 μM N-[3-(1,3-benzodioxol-5-yl)-3-(2-methoxyphenyl)propyl]-N-benzylpropanamide, and 100 μM N-[3-(1,3-benzodioxol-5-yl)-3-(2-methoxyphenyl)propyl]-N-benzylpropanamide, 1 μM N′-(4-isopropylphenyl)-1-benzothiophene-2-carbohydrazide, 10 μM N′-(4-isopropylphenyl)-1-benzothiophene-2-carbohydrazide, or 100 μM N′-(4-isopropylphenyl)-1-benzothiophene-2-carbohydrazide. The cell morphology and growth was monitored daily for 1 week by microscopy for changes in morphology or cell death. Apoptosis was determined by measuring caspase 3 and caspase 7 activities using the Caspase-Glo 3/7 Assay system from Promega (Madison, Wis.).

Id1-E47 interaction = target: T1, Id1-E47 interaction (Homo sapiens, UniProt P41134); test: Gel shift assay: E47 binding to MCK E-box oligonucleotide in the presence of Id1; format: biochemical
T1 sequence (P41134 1-155): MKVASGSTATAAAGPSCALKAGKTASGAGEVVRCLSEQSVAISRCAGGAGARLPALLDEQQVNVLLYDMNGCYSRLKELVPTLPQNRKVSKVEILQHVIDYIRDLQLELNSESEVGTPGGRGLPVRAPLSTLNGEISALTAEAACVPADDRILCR
Experimental: Gel shift assays were performed using the 376 small molecules identified in the in silico drug screen and peptide synthesis. The identified compounds were then dissolved in 5% DMSO to a concentration of 100 μm and reacted in binding mixtures that contained E47, Id1 and Mck. As controls, recombinant human E47 was used in a standard binding reaction that contained ^32P labeled MCK double stranded oligonucleotides containing consensus E-Box response element (MCK-5′ TTGATCCCCCCAACACCTGCTGCCTGAAGCT (SEQ ID NO. 1)) and 100 ng of Id1 was added to a standard binding reaction using E47 and p32 labeled MCK. After 30 minutes of incubation, the reaction mixtures were resolved on a 5% non-denaturing polyacrylamide gel and autoradiographed.

CC(C)c1ccc(NNC(=O)c2cc3ccccc3s2)cc1 [N′-(4-isopropylphenyl)-1-benzothiophene-2-carbohydrazide]
survival of DU145 cells (DU145 cells): able to induce cell death
dose dependence of effect in the gel shift assay (Id1-E47 interaction): dose-proportionality
anti-Id activity in the gel shift assay (shifted band of bound E47-MCK in the presence of Id1) (Id1-E47 interaction; compound 100 μm in 5% DMSO, E47, Id1 and MCK, 30 minutes): restore the binding between E47-MCK in the presence of Id1
